Source: publication PMC3261198, “Mitochondrial Apoptosis and FAK Signaling Disruption by a Novel Histone Deacetylase Inhibitor, HTPB, in Antitumor and Antimetastatic Mouse Models” (PLoS ONE, 2012)

Legend:
[1] = tested on: acetylation of histone H3, histone H4 and p53; settings: single dose 50 mg/kg intraperitoneal, after 2 hours
[2] = 25–100 mg/kg intraperitoneal or oral, three weeks
[3] = tested on: H1299 cells; settings: H1299, 5 µM, 24 hours
[4] = tested on: MMP-9; settings: A549 and H1299 cells, 2.5 µM, 48 hours
[5] = tested on: A549 lung tumor xenograft; assay: In vivo anti-tumor growth assay; settings: for tumor growth inhibition compared with DMSO control / tumor growth inhibition: 3 days/week for three weeks; for tumor growth inhibition: oral
[6] = tested on: lung metastasis of 4T1-luc cells; settings: cells pre-treated with 1.92 µM for 48 hours, injected via tail vein, imaged 13 days
[7] = tested on: MMP-2; settings: A549 and H1299 cells, 2.5 µM, 48 hours
[8] = in vitro; settings: human, H1299 cells
[9] = tested on: RhoA; settings: A549 and H1299 cells, 2.5 µM, 48 hours
[10] = in vitro; settings: human, A549 cells
[11] = target: HDAC8 (Homo sapiens, UniProt Q9BY41); settings: HTPB 1 or 2 µM; class I HDAC from A549 cells
[12] = tested on: HDAC; settings: Fig. S5, compared to MS275
[13] = tested on: H1299 cells; assay: cells; settings: Homo sapiens, NCI-H1299, 48 h, read-out: IC50 (cytotoxicity)
[14] = tested on: A549 cells; assay: cells; settings: Homo sapiens, A549, 48 h, read-out: IC50 (cytotoxicity)
[15] = target: HDAC11 (Homo sapiens, UniProt Q96DB2); settings: HTPB 1 or 2 µM; class IV HDAC from A549 cells
[16] = tested on: 4T1-luc breast cancer cells; settings: 1.92 µM, 48 hours
[17] = target: HDAC4 (Homo sapiens, UniProt P56524); settings: HTPB 1 or 2 µM; class II HDAC from A549 cells
[18] = tested on: A549 cells; settings: A549, 5 µM, 24 hours
[19] = tested on: IMR90 normal lung cell line; settings: 0.5–10 µM, 48 hours, MTT
[20] = tested on: acetylation of histone H3, histone H4, p53 and tubulin; settings: time- and dose-dependent, Western blot
[21] = target: HDAC1 (Homo sapiens, UniProt Q13547); settings: HTPB 1 or 2 µM; class I HDAC from A549 cells
[22] = tested on: 4T1-luc breast cancer cells; settings: 1.92 µM, 48 hours; remark: listed apart in the source
[23] = target: HDAC6 (Homo sapiens, UniProt Q9UBN7); settings: HTPB 1 or 2 µM; class II HDAC from A549 cells
Sequence of HDAC6 (Q9UBN7 whole entry): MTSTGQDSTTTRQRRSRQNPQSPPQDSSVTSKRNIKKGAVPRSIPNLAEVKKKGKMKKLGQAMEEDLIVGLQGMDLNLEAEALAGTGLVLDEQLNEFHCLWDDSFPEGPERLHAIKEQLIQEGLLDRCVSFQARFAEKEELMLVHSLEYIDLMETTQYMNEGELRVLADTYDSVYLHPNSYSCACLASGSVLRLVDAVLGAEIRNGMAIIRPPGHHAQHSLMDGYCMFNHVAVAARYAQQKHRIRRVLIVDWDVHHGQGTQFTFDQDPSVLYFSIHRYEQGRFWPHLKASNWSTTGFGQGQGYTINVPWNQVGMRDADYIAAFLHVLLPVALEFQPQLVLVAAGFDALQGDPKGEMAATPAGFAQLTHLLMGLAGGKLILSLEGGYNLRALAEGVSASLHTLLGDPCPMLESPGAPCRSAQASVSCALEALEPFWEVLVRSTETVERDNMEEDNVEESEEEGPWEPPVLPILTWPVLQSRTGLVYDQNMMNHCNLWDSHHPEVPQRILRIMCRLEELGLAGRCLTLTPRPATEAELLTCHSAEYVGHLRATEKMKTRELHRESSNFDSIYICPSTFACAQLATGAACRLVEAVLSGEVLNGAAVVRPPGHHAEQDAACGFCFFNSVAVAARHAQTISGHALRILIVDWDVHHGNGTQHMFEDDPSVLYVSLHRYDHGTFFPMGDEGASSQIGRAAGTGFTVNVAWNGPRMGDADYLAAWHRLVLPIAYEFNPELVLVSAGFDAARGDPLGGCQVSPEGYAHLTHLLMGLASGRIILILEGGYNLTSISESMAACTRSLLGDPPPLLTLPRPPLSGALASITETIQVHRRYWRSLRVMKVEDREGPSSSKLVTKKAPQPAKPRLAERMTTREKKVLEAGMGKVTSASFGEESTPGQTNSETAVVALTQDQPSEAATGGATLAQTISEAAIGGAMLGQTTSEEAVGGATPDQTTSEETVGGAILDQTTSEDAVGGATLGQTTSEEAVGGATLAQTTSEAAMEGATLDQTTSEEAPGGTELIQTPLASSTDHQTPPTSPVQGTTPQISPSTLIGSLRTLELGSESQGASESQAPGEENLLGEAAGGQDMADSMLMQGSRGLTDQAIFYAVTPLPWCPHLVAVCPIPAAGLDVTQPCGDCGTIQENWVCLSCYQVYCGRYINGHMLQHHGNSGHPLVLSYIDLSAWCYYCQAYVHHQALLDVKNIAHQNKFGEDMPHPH

Sequence of HDAC8 (Q9BY41 whole entry): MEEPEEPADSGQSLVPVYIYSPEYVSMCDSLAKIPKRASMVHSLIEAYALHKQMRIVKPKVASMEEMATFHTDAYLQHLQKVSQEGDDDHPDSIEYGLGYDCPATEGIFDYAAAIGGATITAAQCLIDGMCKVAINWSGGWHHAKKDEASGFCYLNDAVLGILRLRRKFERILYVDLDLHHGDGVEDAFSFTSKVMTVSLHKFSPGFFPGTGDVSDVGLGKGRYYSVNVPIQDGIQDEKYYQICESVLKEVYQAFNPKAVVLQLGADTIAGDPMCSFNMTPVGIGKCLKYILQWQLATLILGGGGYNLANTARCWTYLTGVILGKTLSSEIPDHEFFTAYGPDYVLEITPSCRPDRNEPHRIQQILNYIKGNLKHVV
Sequence of HDAC11 (Q96DB2 whole entry): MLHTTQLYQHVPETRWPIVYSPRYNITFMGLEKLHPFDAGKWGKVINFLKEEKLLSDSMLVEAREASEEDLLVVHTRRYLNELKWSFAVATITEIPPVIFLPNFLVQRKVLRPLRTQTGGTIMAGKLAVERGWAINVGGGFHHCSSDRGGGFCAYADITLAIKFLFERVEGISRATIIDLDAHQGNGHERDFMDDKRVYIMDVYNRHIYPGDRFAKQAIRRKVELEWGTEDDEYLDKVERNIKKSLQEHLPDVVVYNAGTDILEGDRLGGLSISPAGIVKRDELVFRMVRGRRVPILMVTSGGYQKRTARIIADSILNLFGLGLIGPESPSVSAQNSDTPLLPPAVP
Sequence of HDAC1 (Q13547 whole entry): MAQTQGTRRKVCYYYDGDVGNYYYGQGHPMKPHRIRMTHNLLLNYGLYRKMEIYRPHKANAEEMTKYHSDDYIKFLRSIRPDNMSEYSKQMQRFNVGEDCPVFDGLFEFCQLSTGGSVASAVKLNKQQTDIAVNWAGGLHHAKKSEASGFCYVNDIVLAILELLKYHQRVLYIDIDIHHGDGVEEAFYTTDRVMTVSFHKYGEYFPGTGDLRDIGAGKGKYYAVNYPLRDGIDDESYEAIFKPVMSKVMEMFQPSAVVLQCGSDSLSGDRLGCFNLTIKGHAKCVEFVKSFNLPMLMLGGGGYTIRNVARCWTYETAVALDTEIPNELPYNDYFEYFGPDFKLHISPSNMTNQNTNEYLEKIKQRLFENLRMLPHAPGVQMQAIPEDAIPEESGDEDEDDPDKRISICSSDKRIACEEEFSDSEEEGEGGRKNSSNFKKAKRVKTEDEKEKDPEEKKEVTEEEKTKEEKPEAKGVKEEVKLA

O=C(CCCc1ccccc1)Nc1ccc(C(=O)NO)cc1 [HTPB, N-Hydroxy-4-(4-phenylbutyryl-amino)benzamide]
acetylation of histone H3, histone H4 and p53 in tumor xenograft [1]: profoundly increased
effect on body weight [2]: did not adversely affect body weight
toxicity by hematological biochemistry examinations (GOT, GPT, albumin, creatinine) [2]: no detectable toxicity
caspase-3 activity [3]: significantly stimulated
caspase-9 activity [3]: significantly stimulated
MMP-9 enzyme activity [4]: significantly decreased
tumor growth inhibition compared with DMSO control ([5]; intraperitoneal, 25 mg/kg): 80%
tumor growth inhibition compared with DMSO control ([5]; intraperitoneal, 50 mg/kg): 94%
anti-tumor growth effect, times more potent than SAHA as assessed by tumor weight ([5]; intraperitoneal, tumor weight): 2–4 times
tumor growth inhibition ([5]; 50 mg/kg): 39%
tumor growth inhibition ([5]; 100 mg/kg): 79%
lung metastasis of 4T1-luc cells [6]: significantly delayed lung metastasis
MMP-2 enzyme activity [7]: significantly decreased
viability at 48 h, 0.5 µM [8]: 94%
viability at 48 h, 1 µM [8]: 85%
RhoA activity (RhoA-GTP) [9]: markedly decreased
viability at 48 h, 0.5 µM [10]: 87%
viability at 48 h, 1 µM [10]: 80%
deacetylase activity of HDAC8 [11]: significantly inhibited
in vitro HDAC activity compared to MS275 [12]: significant inhibition
IC50 [13]: 2.19 µM
IC50 [14]: 1.59 µM
deacetylase activity of HDAC11 [15]: significantly inhibited
cell viability of 4T1-luc cells [16]: did not change cell viability
deacetylase activity of HDAC4 [17]: significantly inhibited
caspase-3 activity [18]: significantly stimulated
caspase-9 activity [18]: significantly stimulated
cytotoxicity towards IMR90 normal lung cell line [19]: without showing apparent cytotoxicity
acetylation of histone H3, histone H4, p53 and tubulin [20]: induced acetylation
deacetylase activity of HDAC1 [21]: significantly inhibited
transwell migration capacities compared to the un-treated control [22]: 50%
deacetylase activity of HDAC6 [23]: significantly inhibited
